Experimental data as given in a melting point compilation (Tetko et al.; mined from patent text by program, amines drawn as free bases though some values may be those of a salt).

Structure (SMILES)	melting point
c1ccc(C2Nc3c4c(nc5ccccc35)CCCC4O2)cc1 (stereo not drawn)	225 to 235 °C
O=C(CN1CCN(C(c2ccccc2)c2ccccc2)CC1)c1ccc(OCc2ccccc2)cc1	151 °C
CCOC(=O)C(=NOCCBr)c1csc(N)n1	111 to 114 °C
Fc1ccc(-c2ccn(CC3CCNCC3)c2-c2ccncc2)cc1	174 to 176 °C
COc1cc(OC)cc(-c2ncn(C)c2-c2ccc(OC(F)F)c(N)c2)c1	99.2 to 101 °C
O=c1oc2ccc(F)cc2c(CBr)c1Br	125 to 127 °C
CCCNC(=O)C1(CCCc2ccccc2)c2ccccc2Sc2ccccc21	130 to 131 °C
Cn1cc(-n2c(-c3cccc(F)c3)nc3c(Cl)ncnc32)ccc1=O	219 °C
COC(=O)N=P(c1ccccc1)(c1ccccc1)c1ccccc1CN(C)C	95 to 97 °C
COc1cccc(CC[C@H]2CN(Cc3ccccc3)CCN2Cc2ccccc2)c1	73 to 75 °C
COc1cc(OC)nc(NC(=O)NS(=O)(=O)c2cccc3c2SC(C)(C)C3)n1	190 to 192 °C
CCOC(=O)c1cn(-c2c(F)cc(F)cc2F)c2nc(Cl)c(F)cc2c1=O	158 to 160 °C
CCN(CC)CCOc1ccc(Nc2ncc3c(n2)N(c2cccc(CCN)c2)C(=O)N(c2ccc(Cl)cc2Cl)C3)cc1	108 °C
NNC(=O)CCc1cccc(F)c1	109 to 110 °C
CCOc1nn(-c2ccc(C(F)(F)F)cn2)cc1CCCOc1cccc(OC(C)(C)C(=O)O)c1	120 to 121 °C
O=C(O)CCCc1cc2cc(C(F)(F)F)ccc2n1S(=O)(=O)c1ccc2c(c1)CCN2	175 °C
O=C(Cc1ccc2c(c1)OCO2)N[C@H]1CC[C@H](CCN2CCC(c3cccc4c3CCO4)CC2)CC1	209 °C
C=CCONC(=O)n1nc(Oc2c(Cl)cc(C(F)(F)F)cc2Cl)cc1C	68 to 70 °C
CC(=O)c1ccc(-c2ccc(N(c3ccccc3)c3ccccc3)cc2)cc1	97 to 98 °C
CC(=O)N(C)c1cc2c(nc(C)n2C)c(O)c1CCC(=O)c1ccccc1	249 to 251 °C
CCOc1nc(NCc2ccco2)nc(Nc2ccc(O)cc2)n1	45 °C
CC1(C(=O)Cn2cncn2)CC1	58 °C

Structure (SMILES)	melting point
BrCc1c(Br)cccc1Br	77 to 78 °C
Cc1nn(-c2cncc(F)c2)cc1N	136 to 138 °C
CSC1=Nc2ccc(Cl)cc2C(=O)N(C)C1	124 to 127 °C
O=c1c2c(Cc3ccc(C(F)(F)F)cc3)n[nH]c2c2cccnc2n1-c1cccc(OC(F)(F)F)c1	227 to 231 °C
CCSCc1ccc2[nH]c(NC(=O)OC)nc2c1	229 to 231 °C
CCCn1c(=O)c2c(nc(/C=C/c3ccc(Cl)cc3)n2C)n(CCC)c1=O	175 to 187 °C
CC1SC(c2cccnc2)N(C)C1=O (stereo not drawn)	66.5 to 68.5 °C
CC(C)(C)CC(C)(C)c1ccc(OCC(=O)Nc2ccc(Cl)c(Nc3cc(=O)n(-c4c(Cl)cc(Cl)cc4Cl)[nH]3)c2)cc1	126 to 128 °C
CC(C)(C)CC(C)(C)c1cc(-c2ccccc2)c(O)c(-n2nc3ccc(-c4ccccc4)cc3n2)c1	123 to 125 °C
NC(=O)/C=C1\CCc2c(F)cc(Cl)cc21	171 to 173 °C
COC(=O)N[C@H](C(=O)O)C(C)(C)C	106 to 108 °C
CCCN1C(=O)c2cnc(-c3ccccc3)nc2N(C(=O)CCl)c2ccccc21	139 to 140 °C
O=c1cc(-c2ccc(OCc3ccccc3)c(OCc3ccccc3)c2)oc2cc(OCC3CO3)ccc12 (stereo not drawn)	168 to 170 °C
CCOC(=O)c1ccc2nc(N)oc2c1	211 to 212 °C
Cc1sc(-c2ccccc2)nc1COc1ccc(COc2ncccc2CC(=O)O)cc1	128 to 129 °C
COCc1cn(-c2ccccc2)nc1OCc1ccc(OCc2nc(-c3ccco3)oc2C)c(OC)c1	121 to 122 °C
Cc1nnc(-c2cc3c(OC[C@@H](O)CN4CCC(c5cccc6ccccc56)CC4)cccc3[nH]2)o1	203 to 205 °C
N#CC(=NO)C1CCCOC1 (stereo not drawn)	46 to 50 °C
BrCCCOc1ccc(-c2ccccc2)cc1	60 to 63 °C
O=C1N(Cc2ccc3nonc3c2)c2ccccc2C12COc1cc3c(cc12)OCO3 (stereo not drawn)	163 to 165 °C
CCCc1cc(O)nc(SC)n1	158 °C
NC(=O)CC(CC(N)=O)c1cccc(F)c1	194 to 196 °C

Structure (SMILES)	melting point
CCC(O)(CO)c1ccc(OCc2ccc3ccccc3c2)c(OC)c1 (stereo not drawn)	120 °C
CC(=O)N1C(=O)N(c2ccc(C#N)c(C(F)(F)F)c2)C(=O)C1(C)C	129 to 130 °C
Cc1nc2c([N+](=O)[O-])cc(Br)cc2n1C	193 to 195 °C
Cc1cc(C)c(C)c(COc2ccccc2-c2ccoc2C(=O)NNC(=O)c2ccc(O)c(C#N)c2)c1C	215 to 217 °C
N#Cc1ccc(C(=O)Nc2ccc(Cl)c([N+](=O)[O-])c2)cc1	213 °C
CN1C(=O)C(C#N)(c2ccc(OCC(O)CNC(C)(C)C)cc2)Sc2ccccc21 (stereo not drawn)	160 °C
CCCCC(=O)Nc1ccc(C(F)(F)F)c(-n2nc(CC)n(Cc3ccc(-c4ccccc4S(=O)(=O)NC(C)(C)C)cc3F)c2=O)c1	243 to 245 °C
CCCn1c(=O)n(-c2ccc3c(c2)OCO3)c2ncc(F)cc21	153 to 154 °C
C[C@H](N)C(c1ccccc1)c1ccccc1	76 to 77 °C
COc1ccc(OCCCCl)c(C2(SC)Sc3ccccc3N(C)C2=O)c1 (stereo not drawn)	135 to 137 °C
Cc1cn(C(C)C(=O)N(C)C)nc1-c1ccc(Cl)c(Cl)c1 (stereo not drawn)	109 to 110 °C
CC(c1oc2ccccc2c(=O)c1-c1cccc(F)c1)n1nc(-c2ccc(S(C)(=O)=O)cc2)c2c(N)ncnc21 (stereo not drawn)	259 to 262 °C
CCCc1cc2c(cc1O)C(C)(C)CCC2(C)C	96 to 97 °C
Cc1nc(N2CCN(CC3CC3(F)F)C2=O)sc1-c1cc[nH]n1 (stereo not drawn)	227 to 230 °C
N#CC#Cc1ccc(O)cc1	134 to 137 °C
O=C(CCC1CCCCC1)C1=C(O)COC1=O	75 to 78 °C
N#CC(c1ccc(O)cc1)c1c(Cl)cc(-n2ncc(=O)[nH]c2=O)cc1Cl (stereo not drawn)	210 °C
FC1(F)C(Oc2cc(Cl)c(Cl)cc2Cl)=C(Oc2cc(Cl)c(Cl)cc2Cl)C(F)(F)C1(F)F	65 to 68 °C
Cc1ccc(S(=O)(=O)OCC(O)(CC(C)c2ccccc2)C(F)(F)F)cc1 (stereo not drawn)	95 to 96 °C
CC(C)(C)c1cc(CCc2ccccc2NC(=O)N(Cc2ccccc2)C2CCCCCC2)cc(C(C)(C)C)c1O	183 to 184 °C
CON=C(C(=O)OC)c1cc(C)c(C)cc1COc1ccccc1C	82 to 84 °C

The next lines start with the values.

melting point	Structure (SMILES)
173 to 175 °C	NS(=O)(=O)C1(c2cnn(CC(F)=C(F)F)c(=O)c2-c2ccc(F)cc2)C=CC=CC1 (stereo not drawn)
178 to 179 °C	CCCCC(=O)Nc1cccc2c1C(=O)N(C1CCC(=O)NC1=O)C2=O (stereo not drawn)
196 to 199 °C	COc1cc2c(Nc3cccc(Cl)c3F)ncnc2cc1OC1CCN(C(=O)CC(C)(C)O)CC1
102 to 105 °C	CCC1CC2=C(CCC(=O)C2)C2CCC3(C)C(=CCC3O)C12 (stereo not drawn)
192 to 196 °C	COC(=O)C1=C2c3sccc3SC(Cl)CN2CC(c2ccccc2)=C1 (stereo not drawn)
115 to 117 °C	CCOC(=O)NC1Cc2ccccc2C1Nc1ccccc1CO (stereo not drawn)
188 to 191 °C	COc1ccc(N2CCc3c2c2cccc(OC)c2[nH]c3=O)c(C)c1
214 to 216 °C	Cc1cccc(-c2c(C3CCN(C)CC3)[nH]c(=O)c3ccccc23)c1
117 to 121 °C	COC(=O)C(=C(/C)c1cc(OC)cc(OC)c1)/C(=C\c1ccccc1)C(=O)NN1CCN(C)CC1
144 to 145 °C	O=C(CC1CCCC1)Nc1c(C(O)(C(F)(F)F)C(F)(F)F)ccc2ccccc12
172 to 175 °C	CCN(CC)C(=O)N1CCC(C(O)(c2ccc(Cl)cc2)c2ccc(Cl)cc2)CC1
108 to 110 °C	COC(=O)c1nnc(NC(=O)CCCOc2cccc(CN3CCCCC3)c2)n1C
148 to 150 °C	Oc1ccc(OCC(O)CNC2CCN(c3ccc(Cl)cn3)CC2)cc1 (stereo not drawn)
250 to 252 °C	CC(C)CC(=O)Oc1ccc2cc(C(=N)N)ccc2c1
182 to 183 °C	O=C1CCC(c2ccc(N=C=S)cc2)=NN1
127 to 128 °C	COc1ccc(-c2cc(C(=O)NCc3ccccn3)c(=O)n(CC3CCCC3)n2)cc1
142 to 145 °C	COC(=O)N1CC=C(c2ccc(N3C[C@H](CNC(C)=O)OC3=O)cc2)CC1

melting point	Structure (SMILES)
225 to 226 °C	COc1nccc(-c2c(-c3ccc(F)cc3)ncn2C2CCC(O)(CO)CC2)n1 (stereo not drawn)
149 to 151 °C	CC(=O)N(C)CCc1ccc(C(=O)O)cc1
50 to 51 °C	CCC(=O)C(CCCCCCOc1ccc(OC)cc1)C(=O)CC
273 to 276 °C	O=C(O)c1cc(Cl)cc(Cl)c1NS(=O)(=O)c1ccc(Cl)cc1
130 °C	COc1ccc2nc(CN3CCN(c4ccc(Cl)cc4Cl)CC3)cn2c1
137 to 139 °C	CNC(=O)C1CCCN1S(=O)(=O)c1ccc(N2CCC3(CC2)OCCO3)cc1 (stereo not drawn)
78 to 79 °C	CCCOc1ccc(S(=O)(=O)N2CCN(CCOC(=O)c3ccccc3)CC2)cc1-c1nc2c(CCC)cn(CC)c2c(=O)[nH]1
107 °C	COC=C(C(=O)OC)C1=C(C=Cc2ccccc2)CCC1
98 to 100 °C	O=C(O)CC1=C(Cc2ccc3c(Cl)cccc3c2)C(=O)CCC1
> 300 °C	COc1cnc(N2CCN(c3ccc(-n4c(C)n[nH]c4=O)cc3)CC2)nc1
139 to 140 °C	COCCC1CCCCN1C(=O)C=Cc1c(-c2ccccc2)nn2ccccc12 (stereo not drawn)
285 to 288 °C	Cc1ccc(N2C(=O)C(O)=C(C(=O)c3ccc(C(C)C)cc3)C2c2ccc(OC3CC3)cc2)nn1 (stereo not drawn)
210 to 215 °C	CC(C)COC(=O)Nc1nc(N2CC=CCC2)nc2nc(=O)on12
182 to 183 °C	CC(C)Cn1c(CNC(=O)OC(C)(C)C)c(-c2ccccc2)c2cc(CCC(=O)O)ccc2c1=O
95 °C	COc1cc2c(cc1OC)C(c1ccc(SC(F)(F)F)cc1)CNCC2 (stereo not drawn)
149 to 151 °C	CN(C)c1cccc(Cc2cc3cccc(-c4cccc(C(=O)NCC(N)=O)c4)c3s2)c1
